Measurements reported in patent US20260241012A1, “1,8-NAPHTHYRIDIN-2-ONE HETEROBIFUNCTIONAL BCL6 DEGRADERS” (Treeline Biosciences, Inc., priority 2022, published 2026).

Target: T1, N-terminal HiBiT tagged BCL6 (Homo sapiens, UniProt P41182)
T1 construct: expressed in transfected cells; host or cells: HT1080 (ATCC CCL-121), stably transduced with lentivirus pLV-UBC-N-HiBiT-BCL6-PGK-puro
Experiment: HiBiT based degradation assay
Assay type: cell-based
Details: HT1080 cells expressing N-terminal HiBiT tagged BCL6, 5 hours of incubation; for Ymin (5 hr): BCL6 degradation normalized with DMSO control; for DC50: four-parameter logistic model, read-out: EC50 (5 hr)
Source text: Human BCL6 protein coding open reading frame fused with N-terminal HiBiT coding sequence was synthesized from Integrated DNA Technologies (IDT). Next, the N-HiBiT-BCL6 sequence was cloned into pLV-UBC-PGK-Puro, a lentivirus plasmid purchased from Vectorbuilder, to generate pLV-UBC-N-HiBiT-BCL6-PGK-puro. Lentiviral particles were generated from Lenti-X™ 293T cells (Clontech) by co-transfection of pLV-UBC-N-HiBiT-BCL6-PGK-puro plasmids and lentiviral packaging plasmid mix (Cellecta). HT1080 [HT1080] (ATCC CCL-121) cells were infected with the lentivirus, and HT1080 cells stably integrated with the lentiviral vectors were established by incubation with 1 μg/mL puromycin (Thermofisher).
HT1080 cells expressing N-terminal HiBiT tagged BCL6 were dispensed into a 384-well plate pre-spotted with compounds at varying concentrations. Five thousand cells were seeded into each well in 40 μL of RPMI 1640 media plus 10% Fetal Bovine Serum (10082-147, Thermofisher). After 5 hours of incubation at 37° C. with 5% CO2, 30 μL of the NANO-GLOR HiBiT Lytic Detection System working solution (Promega) was added to each well and incubated at room temperature for 15 min. After incubation, luminescence was read on a PHERAstar FSX Plate Reader (BMG). BCL6 degradation at each indicated concentration was normalized with DMSO control. The BCL6 degradation curves were plotted using a four-parameter logistic model.

| SMILES | Ymin (5 hr) | DC50 [µM] |
| --- | --- | --- |
| CNC(=O)COc1cc2cc(Nc3nc(N4CCC(CN5CCN(c6cccc7c(C8CCC(=O)NC8=O)nn(C)c67)[C@H](C)C5)CC4)ncc3Cl)cnc2n(C(C)C)c1=O (stereo partly drawn) [Compound 169b, 2-((6-((5-chloro-2-(4-(((3R)-4-(3-(2,6-dioxopiperidin-3-yl)-1-methyl-1H-indazol-7-yl)-3-methylpiperazin-1-yl)methyl)piperidin-1-yl)pyrimidin-4-yl)amino)-1-isopropyl-2-oxo-1,2-dihydro-1,8-naphthyridin-3-yl)oxy)-N-methylacetamide] | ++++ (Ymin < 30%) | < 0.01 |
| CNC(=O)COc1cc2cc(Nc3nc(N4CC5(CC[C@H](Oc6ccc7c(C8CCC(=O)NC8=O)nn(C)c7c6)[C@@H](C)C5)C4)ncc3Cl)cnc2n(C(C)C)c1=O (relative stereo) [Compound 185c, 2-[[6-[[5-chloro-2-[(6S,7S)-7-[3-(2,6-dioxo-3-piperidyl)-1-methyl-indazol-6-yl]oxy-6-methyl-2-azaspiro[3.5]nonan-2-yl]pyrimidin-4-yl]amino]-1-isopropyl-2-oxo-1,8-naphthyridin-3-yl]oxy]-N-methyl-acetamide] | ++++ (Ymin < 30%) | < 0.01 |
| CNC(=O)COc1cc2cc(Nc3nc(N4CC5(CC[C@H](Oc6ccc7c(C8CCC(=O)NC8=O)nn(C)c7c6)[C@H](C)C5)C4)ncc3Cl)cnc2n(C(C)C)c1=O (single isomer, unassigned) [Compound 185a] | ++++ (Ymin < 30%) | < 0.01 |
| CNC(=O)COc1cc2cc(Nc3nc(N4CCN(C[C@@H]5CCN(c6ccc7c(C8CCC(=O)NC8=O)nn(C)c7c6)C5)[C@H](C)C4)ncc3Cl)cnc2n(C(C)C)c1=O (stereo partly drawn) [Compound 216d, 2-[[6-[[5-chloro-2-[(3R)-4-[[(3S)-1-[3-(2,6-dioxo-3-piperidyl)-1-methyl-indazol-6-yl]pyrrolidin-3-yl]methyl]-3-methyl-piperazin-1-yl]pyrimidin-4-yl]amino]-1-isopropyl-2-oxo-1,8-naphthyridin-3-yl]oxy]-N-methyl-acetamide] | +++ (30% ≤ Ymin < 50%) | < 0.01 |
| CNC(=O)COc1cc2cc(Nc3nc(N4CCCN(CC5CCN(c6cccc7c(C8CCC(=O)NC8=O)nn(C)c67)CC5)CC4)ncc3Cl)cnc2n(C)c1=O (centres unmarked) [Compound 110, 2-((6-((5-chloro-2-(4-((1-(3-(2,6-dioxopiperidin-3-yl)-1-methyl-1H-indazol-7-yl)piperidin-4-yl)methyl)-1,4-diazepan-1-yl)pyrimidin-4-yl)amino)-1-methyl-2-oxo-1,2-dihydro-1,8-naphthyridin-3-yl)oxy)-N-methylacetamide] | +++ (30% ≤ Ymin < 50%) | 0.01 to 0.1 |
| CNC(=O)COc1cc2cc(Nc3nc(N4CC5(CC(Nc6ccc7c(C8CCC(=O)NC8=O)nn(C)c7c6)C5)C4)ncc3Cl)cnc2n(C(C)C)c1=O (centres unmarked) [Compound 202, 2-[[6-[[5-chloro-2-[6-[[3-(2,6-dioxo-3-piperidyl)-1-methyl-indazol-6-yl]amino]-2-azaspiro[3.3]heptan-2-yl]pyrimidin-4-yl]amino]-1-isopropyl-2-oxo-1,8-naphthyridin-3-yl]oxy]-N-methyl-acetamide] | ++++ (Ymin < 30%) | < 0.01 |
| CNC(=O)COc1cc2cc(Nc3nc(N4C[C@H]5C[C@@H]4CN5CC4CCN(c5cccc6c(C7CCC(=O)NC7=O)nn(C)c56)CC4)ncc3Cl)cnc2n(C(C)C)c1=O (stereo partly drawn) [Compound 174a, 2-[[6-[[5-chloro-2-[(1R,4R)-5-[[1-[3-(2,6-dioxo-3-piperidyl)-1-methyl-indazol-7-yl]-4-piperidyl]methyl]-2,5-diazabicyclo[2.2.1]heptan-2-yl]pyrimidin-4-yl]amino]-1-isopropyl-2-oxo-1,8-naphthyridin-3-yl]oxy]-N-methyl-acetamide] | ++ (50% ≤ Ymin < 70%) | < 0.01 |
| CNC(=O)COc1cc2cc(Nc3nc(N4CC5(CC[C@@H](Nc6ccc7c(C8CCC(=O)NC8=O)nn(C)c7c6)[C@H](C)C5)C4)ncc3Cl)cnc2n(C(C)C)c1=O (relative stereo) [Compound 180d, rel-2-((6-((5-chloro-2-((6R,7R)-7-((3-(2,6-dioxopiperidin-3-yl)-1-methyl-1H-indazol-6-yl)amino)-6-methyl-2-azaspiro[3.5]nonan-2-yl)pyrimidin-4-yl)amino)-1-isopropyl-2-oxo-1,2-dihydro-1,8-naphthyridin-3-yl)oxy)-N-methylacetamide] | ++++ (Ymin < 30%) | < 0.01 |
| CNC(=O)COc1cc2cc(Nc3nc(N4CCN(CC5CCN(c6cccc7c(C8CCC(=O)NC8=O)nn(C)c67)CC5)CC4)ncc3Cl)cnc2n(C)c1=O (centres unmarked) [Compound 101, 2-((6-((5-chloro-2-(4-((1-(3-(2,6-dioxopiperidin-3-yl)-1-methyl-1H-indazol-7-yl)piperidin-4-yl)methyl)piperazin-1-yl)pyrimidin-4-yl)amino)-1-methyl-2-oxo-1,2-dihydro-1,8-naphthyridin-3-yl)oxy)-N-methylacetamide] | ++++ (Ymin < 30%) | < 0.01 |
| CNC(=O)COc1cc2cc(Nc3nc(N4CC[C@@H](CN5CCN(c6ccc7c(C8CCC(=O)NC8=O)nn(C)c7c6)CC5)[C@@H](C)C4)ncc3Cl)cnc2n(C(C)C)c1=O (stereo partly drawn) [Compound 176c, 2-((6-((5-chloro-2-((3R,4R)-4-((4-(3-(2,6-dioxopiperidin-3-yl)-1-methyl-1H-indazol-6-yl)piperazin-1-yl)methyl)-3-methylpiperidin-1-yl)pyrimidin-4-yl)amino)-1-isopropyl-2-oxo-1,2-dihydro-1,8-naphthyridin-3-yl)oxy)-N-methylacetamide] | +++ (30% ≤ Ymin < 50%) | 0.01 to 0.1 |
| CNC(=O)COc1cc2cc(Nc3nc(N4CCN(CC5CCN(c6ccc7c(C8CCC(=O)NC8=O)nn(C)c7c6)CC5)CC4)ncc3Cl)cnc2n(C(C)C)c1=O (centres unmarked) [Compound 104, 2-((6-((5-chloro-2-(4-((1-(3-(2,6-dioxopiperidin-3-yl)-1-methyl-1H-indazol-6-yl)piperidin-4-yl)methyl)piperazin-1-yl)pyrimidin-4-yl)amino)-1-isopropyl-2-oxo-1,2-dihydro-1,8-naphthyridin-3-yl)oxy)-N-methylacetamide] | +++ (30% ≤ Ymin < 50%) | < 0.01 |
| CNC(=O)COc1cc2cc(Nc3nc(N4CC5(CC[C@@H](Nc6ccc7c(C8CCC(=O)NC8=O)nn(C)c7c6)[C@@H](C)C5)C4)ncc3Cl)cnc2n(C(C)C)c1=O (relative stereo) [Compound 180a, rel-2-((6-((5-chloro-2-((6S,7R)-7-((3-(2,6-dioxopiperidin-3-yl)-1-methyl-1H-indazol-6-yl)amino)-6-methyl-2-azaspiro[3.5]nonan-2-yl)pyrimidin-4-yl)amino)-1-isopropyl-2-oxo-1,2-dihydro-1,8-naphthyridin-3-yl)oxy)-N-methylacetamide] | +++ (30% ≤ Ymin < 50%) | 0.01 to 0.1 |
| CNC(=O)COc1cc2cc(Nc3nc(N4CC5(CCC(Oc6cccc7c(C8CCC(=O)NC8=O)nn(C)c67)CC5)C4)ncc3Cl)cnc2n(C)c1=O (centres unmarked) [Compound 142, 2-((6-((5-chloro-2-(7-((3-(2,6-dioxopiperidin-3-yl)-1-methyl-1H-indazol-7-yl)oxy)-2-azaspiro[3.5]nonan-2-yl)pyrimidin-4-yl)amino)-1-methyl-2-oxo-1,2-dihydro-1,8-naphthyridin-3-yl)oxy)-N-methylacetamide] | +++ (30% ≤ Ymin < 50%) | < 0.01 |
| CNC(=O)COc1cc2cc(Nc3nc(N4CC5(CC[C@H](Nc6ccc7c(C8CCC(=O)NC8=O)nn(C)c7c6)[C@H](C)C5)C4)ncc3Cl)cnc2n(C(C)C)c1=O (relative stereo) [Compound 180b, rel-2-((6-((5-chloro-2-((6R,7S)-7-((3-(2,6-dioxopiperidin-3-yl)-1-methyl-1H-indazol-6-yl)amino)-6-methyl-2-azaspiro[3.5]nonan-2-yl)pyrimidin-4-yl)amino)-1-isopropyl-2-oxo-1,2-dihydro-1,8-naphthyridin-3-yl)oxy)-N-methylacetamide] | +++ (30% ≤ Ymin < 50%) | < 0.01 |
| CNC(=O)COc1cc2cc(Nc3nc(N4CCC(F)(CN5CCN(c6cccc7c(C8CCC(=O)NC8=O)nn(C)c67)C[C@@H]5C)CC4)ncc3Cl)cnc2n(C(C)C)c1=O (stereo partly drawn) [Compound 189a, 2-[[6-[[5-chloro-2-[4-[[(2S)-4-[3-(2,6-dioxo-3-piperidyl)-1-methyl-indazol-7-yl]-2-methyl-piperazin-1-yl]methyl]-4-fluoro-1-piperidyl]pyrimidin-4-yl]amino]-1-isopropyl-2-oxo-1,8-naphthyridin-3-yl]oxy]-N-methyl-acetamide] | ++++ (Ymin < 30%) | 0.01 to 0.1 |
| CNC(=O)COc1cc2cc(Nc3nc(N4CCC([C@@](C)(O)C5CCN(c6cccc7c(C8CCC(=O)NC8=O)nn(C)c67)CC5)CC4)ncc3Cl)cnc2n(C(C)C)c1=O (single isomer, unassigned) [Compound 194a] | ++++ (Ymin < 30%) | 0.01 to 0.1 |
